These results are taken from PMC8308784, “Novel Purine Chemotypes with Activity against Plasmodium falciparum and Trypanosoma cruzi” (Pharmaceuticals, 2021).

For one data set, the system named is P. falciparum 3D7. Kind of data set: P. falciparum primary screening at three fixed concentrations. The data set is classed as cell-based. Conditions: average of at least three experiments; for activity at 1 µM / activity at 10 µM / activity at 100 µM: Plasmodium falciparum, read-out: Primary screening, parasite growth relative to the negative control; for activity at 1 µM: 3D7, compound at 1 µM; for activity at 10 µM: 3D7, compound at 10 µM; for activity at 100 µM: 3D7, compound at 100 µM.

Data set [1] relates to T. cruzi Tulahuen strain expressing β-galactosidase. Kind of data set: T. cruzi primary screening at three fixed concentrations. The class given is cell-based. The method, then: T. cruzi parasites from the Tulahuen strain (discrete typing unit (DTU) VI) expressing β-galactosidase were maintained in culture by the infection of LLC-MK2 cells in DMEM supplemented with 2% FBS and 1% penicillin–streptomycin–glutamine (PSG), as described in [52]. When free-swimming trypomastigotes were released to the culture medium, they were centrifuged for 7 min at 2500 rpm and allowed to swim out of the pellet. Trypomastigotes were used to maintain the parasite cycle, or for the performance of the antiparasitic assays.
[…] Conditions were tested in triplicate for every concentration. Z-values varied between 0.81 and 0.92 in the different plates analyzed. Selected compounds (34.6% potential hit rate) were further analyzed via standard growth inhibition assays. The Z-values of dose–response assays correlated with those previously reported. For both assays, Vero cells and trypomastigotes from the Tulahuen T. cruzi strain expressing β-galactosidase were harvested, centrifuged, and resuspended in DMEM without phenol red supplemented with 1% PSG, 2% FBS, 1 mM sodium pyruvate, and 25 mM HEPES. Vero cells and trypomastigotes were counted, diluted at a concentration of 1 × 10^6 cells/mL each, and mixed 1:1 (v/v). Then, 100 μL of that mixture was added per well to the plates already containing the compounds. Each well contained 50,000 host cells and 50,000 parasites, i.e., multiplicity of infection (MOI) = 1. BNZ was used as control of maximal drug growth inhibition in each round, whereas each plate contained its own negative control (maximum parasite growth; Vero cells plus parasites without drugs) and positive control (minimum parasite growth; trypomastigote forms alone marking an enzymatic zero time or baseline galactosidase activity). After four days at 37 °C, 50 µL of a PBS solution containing 0.25% NP40 and 500 µM chlorophenol red-β-D-galactopyranoside (CPRG) substrate were added per well [32]. Plates were incubated at 37 °C for 4 h, and their absorbance read out at 590 nm using an Epoch Gene5 spectrophotometer.
(§1) Absorbance values derived from the anti-T. cruzi assays and fluorescence values from the anti-P. falciparum and cell toxicity assays were normalized to the controls. In the primary screening at three fixed doses, the compounds’ inhibitory activity was expressed as a percentage of the negative control (100% parasitic growth). In dose–response assays, the compounds’ IC50 and TC50 values were determined with GraphPad Prism 7 software (version 7.00, 2016), using a non-linear regression analysis model defined by the following equation: Y=100 ÷(1+10^((LogIC50−X)×HillSlope))

The test system of a further data set is Vero cells. Kind of data set: Vero cell toxicity assay (alamarBlue). Conditions: 4 days; minimum value of the 95% CI, except BNZ (mean (SD)). The class given is cell-based, green monkey. The method, then: Human erythrocytes were purified from B+ Rh+ blood samples and maintained at 4 °C in incomplete RPMI medium. Vero (green monkey kidney epithelial cells), LLC-MK2 (Rhesus monkey kidney epithelial cells), and HepG2 (human liver epithelial cells) cultures were cultivated in DMEM supplemented with 1% penicillin–streptomycin (PS) and 10% heat-inactivated fetal bovine serum (FBS) at 37 °C, 5% CO2, and >95% humidity, as described in [31]. HepG2 cells were also supplemented with 10% non-essential amino acids. Vero and MK2 cells were passaged twice per week at 1:12 ratios, while HepG2 cells were passaged at a 1:8 ratio.
Vero and HepG2 cells were detached, centrifuged, and resuspended in DMEM without phenol red. Cell viability was checked upon cell counting with trypan blue staining. Then, Vero and HepG2 cells were diluted at a concentration of 5 × 10^5 and 3.2 × 10^5 cells per mL, respectively, before adding 100 µL per well to the 96-well plate. Each run contained its own negative (untreated cells) and positive (medium alone) controls. Plates were incubated at 37 °C for 4 days in the case of Vero, or 2 in the case of HepG2 cells. Assay readout was made by adding 50 µL per well of a PBS solution containing 10% alamarBlue reagent (Thermo Fisher Scientific); then, plates were incubated for another 6 h at 37 °C, before recording the fluorescence intensity with a Tecan Infinite M Nano+ reader (excitation: 530 nm, emission: 590 nm).
as §1
A general note: Alamar Blue is a resazurin reagent that responds to reducing activity.

Data set [2] deals with T. cruzi intracellular amastigotes. Kind of data set: Antiamastigote growth inhibition assay. The class given is cell-based. The following applies: intracellular amastigotes in Vero cells, mean (SD), read-out: T. cruzi IC50 b (antiamastigote assay). The method, then:
Vero cells were seeded in T-175 flasks (5 × 10^6 cells per flask) in DMEM supplemented with 1% penicillin–streptomycin and 10% FBS, and cultured for 24 h. Then, cells were washed once with PBS, and free-swimming trypomastigotes (1 × 10^7 trypomastigotes per flask; MOI = 1) in assay medium were added and allowed 18 h to infect. After that, infected cell monolayers were washed with PBS and detached. Cells were counted and diluted to a concentration of 5 × 10^5 cells per mL, before adding 100 µL per well to test plates already containing the drugs dispensed as described above. In all cases, we included BNZ as control drug, and each plate contained its own negative (Vero cells and parasites) and positive (Vero cells) controls.
as §1

[3] abbreviates: compound at 10 µM, average of at least three independent experiments.

As a reminder, the IC50 is the concentration needed to halve the response being measured.

Like-named read-outs stand apart in the source and are kept apart here.

As for `CC(C)(C)n1c(-c2ccccc2)nc2c(OCc3ccccc3)ncnc21` [Compound 6D], in the data set with P. falciparum 3D7, the activity at 1 µM was 117%, the activity at 10 µM was determined as 114% and the activity at 100 µM was 13.2%. In data set [1] (setting [3]), the “Primary screening, growth inhibition values at 10 µM” value came out at 84.14. Moreover, the “Vero Cells TC50” value in the data set with Vero cells is listed as more than 150 µM. In addition, the IC50 in data set [2] (Trypanosoma cruzi) is 3.78 µM.

Regarding `c1ccc(CCn2c(-c3ccccc3)nc3c(OCc4ccccc4)ncnc32)cc1` [Compound 6g], the figures for the “Primary screening, parasite growth relative to the negative control” value with P. falciparum 3D7 (compound at 1 µM), in the data set with P. falciparum 3D7 (compound at 10 µM) and in the data set on P. falciparum 3D7 (compound at 100 µM) were 100.79%, 94.94% and 24.45%, respectively. Further, in data set [1] (setting [3]), the “Primary screening, growth inhibition values at 10 µM” value came to 87.76. Moreover, the “Vero Cells TC50” value with Vero cells is more than 150 µM. In data set [2], the concentration for half-maximal inhibition (IC50) stood at 19.6 µM.

With `COC(=O)c1ccccc1-n1cc(COc2ncnc3c2nc(-c2ccccc2)n3N(C)C)nn1` [Compound 34], the activity at 1 µM in the data set with P. falciparum 3D7 was found to be 95.6%; in data set [1] (Trypanosoma cruzi, TULAHUEN, compound at 1 µM, average of at least three independent experiments, read-out: Primary screening, growth inhibition values at 1 µM) it was 68%. The activity at 10 µM was 85% in the data set on P. falciparum 3D7 and 66.9% in data set [1] (Trypanosoma cruzi, TULAHUEN, compound at 10 µM, average of at least three independent experiments, read-out: Primary screening, growth inhibition values at 10 µM). Moreover, the activity at 100 µM came to 43.2% in the data set with P. falciparum 3D7 and 13.9% in data set [1] (Trypanosoma cruzi, TULAHUEN, read-out: Primary screening, growth inhibition values at 100 µM). Further, the “Vero Cells TC50” value in the data set with Vero cells is more than 6000 µM. In addition, the half-maximal inhibitory concentration (IC50) in data set [2] (Trypanosoma cruzi) worked out at 4.24 µM.
